Test results from patent US8927723B2, “Preparation of pyridonecarboxylic acid antibacterials” (AbbVie, Inc., priority 2004, dated 2015).
In brackets after ≈: the same amount, converted by molar mass.

Test: solubility of compounds having formula (VII) in ethyl acetate
Conditions: organic solvent or mixture

SMILES: CCOC(=O)c1cn(-c2nc(N)c(F)cc2F)c2cc(N3CC(OC(=O)C(C)C)C3)c(F)cc2c1=O [CH(CH3)2, ethyl 1-(6-amino-3,5-difluoropyridin-2-yl)-6-fluoro-7-(3-(isobutyryloxy)azetidin-1-yl)-4-oxo-1,4-dihydroquinoline-3-carboxylate]
- solubility: 6400 µg/mL (≈ 12.7 mM)
